Measured values taken from patent publication US5455044A, “Method for treating neurological disorders” (priority 1993, dated 1995).

Experiment: Effect of concurrent oral dexamethasone administration on DTC 101 toxicity

C[C@@H]1C[C@H]2[C@@H]3CCC4=CC(=O)C=C[C@]4(C)[C@@]3(F)[C@@H](O)C[C@]2(C)[C@@]1(O)C(=O)CO [dexamethasone]
effect on toxicities associated with DTC 101 (oral, 2 to 4 mg twice per day): major effect on blunting toxicities associated with DTC 101 | DTC 101 toxicity with concurrent oral dexamethasone (three patients, same dose of DTC 101 with and without dexamethasone): almost completely suppressed
